Source: patent US20100279941A1, “CD36 MODULATION AND USES THEREOF” (priority 2009, published 2010)
Numbered stars: 1 amine (or outer) side, 2 acyl side, 3 side chain; on linkers, the order of the positions; unused ones are H or OH. Square brackets hold non-standard residues; d marks the D form. Peptide text beside a SMILES is read from it. azaPhe = O=C(N(Cc1ccccc1)N[*:1])[*:2]; azaPro = O=C(N1CCCN1[*:1])[*:2]

Tests used:
Assay type in all cases: in vivo
[1] = tested on: CD36^+/+ and CD36^−/− mice; experiment: Area at risk and infarct size after 30-min LCAL and 48 hours reperfusion (Evans blue/TTC)
Excerpt: Animals. CD36^−/− mice were generated by targeted homologous recombination and backcrossed six times to C57BI/6. Wild-type control littermates (CD36^+/+) were bred from the same cross and were therefore of identical genetic background [Febbraio et al., 2000]. Male mice, aged 23 (±1) weeks, were used for experiments. They were fed standard chow (#5075, Charles Rivers, Saint-Constant, Québec, Canada) and water ad libitum, and housed singly during treatment periods (2 or 10 weeks). Daily pharmacological treatments with 300 μg/kg of EP 80317 or CP1A(IV) or vehicle (0.9% NaCl) were done by subcutaneous (s.c.) injections.
(§1) C57BU6 mice were bred in house. Male mice, aged 23 (±1) weeks, were used for experiments. They were fed standard chow (#5075, Charles Rivers, Saint-Constant, Québec, Canada) and water ad libitum, and housed singly during treatment periods (2 weeks). Daily pharmacological treatments with 300 μg/kg (289 nmol/kg) of EP 80317 or 289 nmol/kg of CP-3(IV), 289 nmol/kg of CP-AP-4 or vehicle (0.9% NaCl) were done by subcutaneous (s.c.) injections.
(§2) Experimental model of IHD: Transient left coronary artery ligation in vivo. Mice were subjected to a transient LCAL surgery as described before, with minor modifications [Tarnayski et al., 2004]. Mice were injected i.p. with buprenorphine (0.05 mg/kg) and placed in an induction chamber with inhalation anesthesia comprised of 3% isoflurane mixed with 100% oxygen. Mice were intubated with a blunt ended 20-gauge catheter into the trachea via the mouth and mechanically ventilated at a tidal volume of 7 ml/kg at 130 respirations/min with a MiniVent™ mouse ventilator (model 845, Harvard Apparatus, Saint-Laurent, QC, Canada). Anesthesia was maintained with 1.5-2% isoflurane and the animals were kept warm using electrical heating pads during the surgical procedure. The chest was opened by a horizontal incision through the skin and muscle layers at the third intercostal space exposing the left side of the heart. […] Visual blanching distal to the coronary occlusion confirmed myocardial ischaemia. Lidocaine (6 mg/kg) was administered i.p. just following occlusion and prior to reperfusion. After 30 minutes, the PE10 tubing was removed allowing reperfusion. The lungs were reinflated and the chest wound closed layer by layer before extubation. At 6 hours following reperfusion, mice were anesthetized (isoflurane), a blood sample withdrawn, and the heart arrested in diastole by an intravenous injection of 1 M KCl (0.5 mL). Hearts were immediately frozen at −80° C. unless otherwise stated.
Evaluation of area at risk and infarct size. Two days after reperfusion, the left anterior descending (LAD) coronary artery was re-occluded at the original site and the abdominal aorta was injected retrogradly with 5% Evans blue dye to delineate the AAR by the absence of dark blue staining. The left ventricle, including the interventricular septum, was dissected and cut into transverse 1-mm slices from the apex to the base, using an acrylic matrix (Alto Inc., Hatfield, Pa., USA). The slices were incubated in 1% triphenyltetrazolium chloride solution at 37° C. for 15 min and placed in 10% neutral buffered formalin for 12 hours. Each slice was weighed and photographed on both sides with a digital camera (Nikon, Coolpix™ 4500, Mississauga, Ontario, Canada). The total LV area, AAR and IA were determined for each side of a slice by planimetric analysis using Adobe CS3 Photoshop™ software (Ottawa, ON, Canada), and averaged. The infarct weight was determined as follows: [(A1×WT1)+(A2×WT2)+(A3×WT3)+(A4×WT4) . . . ] where A and WT are the infarct area and weight of the section, respectively. The AAR weight was calculated in a similar manner, but by subtracting the blue (viable) stained zone from the weight. The results are expressed in terms of % IA/AAR, IA/LV and AAR/LV.

C57BL/6 mice [2] = experiment: Cardiac troponin I (cTnI) in plasma, ELISA; settings: 48 hours post-ischemia; 2 weeks 289 nmol/kg; compared to vehicle
Procedure: as §1
as §2, with “At 6 hours following reperfusion, mice were anesthetized (isoflurane), a blood sample withdrawn, and the heart arrested in diastole by an intravenous injection of 1 M KCl (0.5 mL).” left out
Cardiac troponin I (cTnI) concentrations in plasma. cTnI plasma levels were assayed using the High Sensitivity Mouse Cardiac Troponin-I ELISA Kit (Life Diagnostics, Inc., West Chester, Pa., Cat. No. 2010-1-HSP), according to the manufacturer's instructions.

C57BL/6 mice [3] = experiment: Blood lactate after transient ischemia; settings: 6-hour reperfusion; 2 weeks 289 nmol/kg; P<0.05 compared to vehicle
Procedure: as §1, §2
Blood lactate. Blood lactate was determined using the Lactate Pro Analyser (FaCT Canada Consulting Ltd, Quesnel, BC, Canada), according to the manufacturer's instructions.

SMILES | reduction of infarct area ([1]; 2-week pretreatment, same drug regimen (300 μg/kg/d), CD36^+/+ mice, 48 hours reperfusion) [%] | area-at-risk ([1]; mouse, in vivo) | reduction of IA/LV ratios ([1]; mouse, in vivo) [%] | reduction of cardiac troponin I (cTnI) levels in plasma (C57BL/6 mice [2]) [%] | reduction of lactate concentration in blood (C57BL/6 mice [3]) [%] | area-at-risk ([1]; CD36^+/+ (C57BL/6) mice, 289 nmol/kg 2 weeks, 48 hours reperfusion, mean (±SE)) | reduction of IA/LV ratios ([1]; CD36^+/+ (C57BL/6) mice, 289 nmol/kg 2 weeks, 48 hours reperfusion, p<0.001 vs 0.9% NaCl) [%]
C[C@H](N)C(=O)NN(Cc1ccccc1)C(=O)N[C@@H](C)C(=O)N[C@@H](Cc1c[nH]c2ccccc12)C(=O)N[C@H](Cc1ccccc1)C(=O)N[C@@H](CCCCN)C(N)=O [CP1A(IV), Ala-AzaPhe-Ala-Trp-DPhe-Lys-NH2] (H-A[azaPhe]AW[dF]K-NH2) | 49 | – | – | – | – | – | –
C[C@H](N)C(=O)N[C@H](Cc1c[nH]c2ccccc12)C(=O)N[C@@H](C)C(=O)NN(Cc1ccccc1)C(=O)N[C@H](Cc1ccccc1)C(=O)N[C@@H](CCCCN)C(N)=O [CP-3(iv), Ala-D-Trp-Ala-AzaPhe-DPhe-Lys-NH2] (H-A[dW]A[azaPhe][dF]K-NH2) | – | 52 (±3) % | 56 | 42 | 27 | – | –
NCCCC[C@H](NC(=O)[C@@H](Cc1ccccc1)NC(=O)[C@H](Cc1c[nH]c2ccccc12)NC(=O)N1CCCN1C(=O)[C@@H](Cc1c[nH]c2ccccc12)NC(=O)[C@@H](N)Cc1cnc[nH]1)C(N)=O [CP-AP-4, His-D-Trp-AzaPro-Trp-DPhe-Lys-NH2] (H-H[dW][azaPro]W[dF]K-NH2) | – | – | – | 54 | 32 | 50 (±4) % | 50
